SMILES strings stand for the structures.

A short description of the data set: gradient 5% acetonitrile 3 min, to 50% in 2 min, to 85% in 15 min, held 3 min, 100 µL/min. To be noted: column: Zorbax Extend-C18 2.1 x 50 mm; eluents: water / acetonitrile, 0.1% formic acid. The method in brief:
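The system's dead and dwell volumes were 40 μL and 900 μL, with a Zorbax Extend-C18 column (2.1 × 50 mm, 1.8 μm) run at 100 μL/min in water and acetonitrile containing 0.1% formic acid each. Pure standards were analyzed in mixtures of ~100 molecules by HPLC–quadrupole time-of-flight mass spectrometry in positive and negative ionization mode. Retention time was assigned from computationally picked, manually inspected adduct peaks.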
`O=C(Cn1cccc(-c2nc(-c3ccc(F)cc3)no2)c1=O)Nc1ccc(Cl)cc1` yielded an RP-LC retention time of 950 s. As for `COCCN1C(=O)c2ccccc2C(C(=O)Nc2ccc(NC(C)=O)cc2)C12CCCCC2` (centres undefined), the figure is 706 s; as for `O=C(NCc1ccc(F)cc1F)c1ccc2c(c1)ncn2CCN1CCCC1`, 576 s. Next, `CCn1ccc(C(=O)Nc2cnc(N3CCCCC3)nc2)n1`: 778 s; `COc1ccccc1-c1noc(C2CCCN2C(=O)Nc2cccc(F)c2)n1` (centres undefined): 894 s. As for `Cc1cc(C)n(CC(=O)N(C)C2CCc3nn(CC4CC4)c(=O)n3CC2)n1` (centres undefined), the figure is 630 s; as for `Cc1ccccc1N(C)C(=O)C1CCCN(c2ncnc3c2nc2n3CCCCC2)C1` (centres undefined), 870 s. `OCCNCc1ccc(-c2ccc(Cl)cc2)o1` showed an RP-LC retention time of 966 s. With `O=C(Nc1ncccn1)c1c[nH]c2c(Cl)cccc2c1=O`, the RP-LC retention time worked out at 617 s. As for `O=C(C1COc2ccccc2O1)N1CCc2cc(-c3ccno3)ccc21` (centres undefined), the figure is 991 s; as for `CCOc1ccc(CNC(=O)CC2CCN(C(=O)c3[nH]c(C)c(C(=O)OC)c3C)CC2)cc1`, 750 s; as for `COc1ccccc1-c1noc(-c2cn(C)c3ccc(F)cc3c2=O)n1`, 744 s. As for `O=C(Cc1cccs1)N1CCC(c2nnc(C(F)(F)F)o2)CC1`, the figure is 752 s. Compound `Cc1ccc(-c2cc(NC(=O)Cc3ccsc3)on2)s1` displayed an RP-LC retention time of 966 s. As for `COc1ccc(OC)c(NC(=O)c2noc3c2CCCC3)c1`, the figure is 1160 s. In turn, `Cc1ccccc1Nc1c(-c2cc(Br)ccc2F)nc2cccc(C)n12` displayed an RP-LC retention time of 814 s. As for `CN1C(=O)c2cccn2CC1CNC(=O)c1cc(CN2CCOCC2)on1` (centres undefined), the figure is 548 s; as for `CCn1nccc1C(=O)N1CC(N(C2CCOCC2)S(C)(=O)=O)C1`, 624 s. Turning to `Cc1cc(C)cc(NS(=O)(=O)c2cc3c(s2)CCN(C(=O)C2CCC2)C3)c1`, the RP-LC retention time was determined as 962 s. With `C[C@@H]1CN(CC(=O)Nc2ccc3c(c2)Cc2cccc(-c4cc(=O)cc(N5CCOCC5)o4)c2S3)C[C@H](C)O1`, the RP-LC retention time was found to be 748 s. Regarding `CCn1ncn2cc(S(=O)(=O)NCc3ccc(Cl)cc3)cc2c1=O`, the RP-LC retention time was found to be 878 s. As for `COc1ccc(Cl)cc1S(=O)(=O)Nc1cccn2c(C3CCC3)nnc12`, the RP-LC retention time was 849 s.

`CCCC(NC(=O)c1cc(OC)c(OC)c(OC)c1)C(=O)Nc1nc2ccccc2[nH]1` (centres undefined): the RP-LC retention time was 688 s. Turning to `CC1CCN(C(=O)C2c3ccccc3CCN2CC(=O)Nc2ccc(F)cc2Cl)CC1` (centres undefined), the RP-LC retention time was 936 s. Next, `Cc1cc(Cl)ccc1NC(=O)c1cn(C)c2ncccc12`: 827 s; `O=C(NCC1CC1)c1c(OCC2CC2)cc(=O)n2c1CCCCC2`: 688 s; `CCN(CC)CCNC(=O)c1cc(S(=O)(=O)N2CCCCCC2)ccc1Cl`: 656 s. `CN1c2cc(C(=O)N3CCN(C4CCCCC4)CC3)ccc2C(=O)N2CCCCC21` (centres undefined) showed an RP-LC retention time of 608 s. Next, `O=C(NCc1ccco1)c1c(-c2ccccc2)nnc2ccccc12`: 756 s; `CC(=O)N1CCc2cc(N3CC(C(=O)Nc4ccccc4C(C)C)CC3=O)ccc21` (centres undefined): 728 s. `Nc1ccc(SCc2nc3cccc4c3n2CCC4)cc1` returned an RP-LC retention time of 662 s. As for `Cc1ccc(Cn2c(=O)c3sccc3n(Cc3nc(-c4ccc(C)cc4)no3)c2=O)cc1`, the figure is 1140 s; as for `CCN1c2ccc(F)cc2C(=O)NC12CCN(C(=O)c1cccc(F)c1)CC2`, 791 s. Next, `Cc1ccc(CN2CCN(C3CCN(C(=O)Nc4ccc(F)cc4F)CC3)C(=O)C2=O)cc1`: 748 s; `CC(C)c1ccc(S(=O)(=O)N2CCCC2c2nc(-c3ccc(Cl)cc3)no2)cc1` (centres undefined): 1360 s; `CC(=O)c1cccc(S(=O)(=O)NC(C)Cc2ccco2)c1` (centres undefined): 770 s.

For `COc1ccccc1NC(=O)N1CCC(c2nc3ccncc3n2C(C)C)C1` (centres undefined), the RP-LC retention time came to 551 s. Next, `Cc1nc(-c2cnccn2)n(CC(=O)Nc2cccc(C(C)C)c2)c(=O)c1C`: 855 s. `CC(C)c1cc(C(C)C)n2nc(N)nc2n1` came in with an RP-LC retention time of 734 s. Next, `COC(=O)c1ccc2c(=O)n(-c3ccc(F)cc3)c(N3CCN(c4ccccn4)CC3)nc2c1`: 660 s. Next, `CNC(=O)[C@@H]1C[C@H](Oc2cccnc2)CN1C(=O)C1CC=CC1`: 554 s.

`CCc1nc(-c2c(C)cc(C)nc2NC(=O)c2cc(C)cc(C)c2)no1` showed an RP-LC retention time of 605 s. Next, `COC(=O)c1ccc2c(=O)n(-c3ccc(C)cc3)c(N3CCCCCC3)nc2c1`: 1340 s.

Compound `COc1ccc(C)cc1NC(=O)N1CCCC1c1cc(C)no1` (centres undefined) yielded an RP-LC retention time of 835 s.

As for `COc1cccc(Cn2cnc3c(-c4ccc(OC)c(OC)c4)csc3c2=O)c1`, the RP-LC retention time worked out at 947 s. For the compound `O=C(Nc1cccc(Cl)c1)C1CCN(c2cc(N3CCCC3)ncn2)CC1`, the RP-LC retention time was 714 s. In the case of `O=C(Nc1ccccc1F)N1CCc2nnc(C3CC3)n2CC1`, the RP-LC retention time worked out at 592 s. As for `Cc1noc(-c2cc(=O)n(CC(=O)Nc3ccc(F)c(F)c3)c3ccccc23)n1`, the figure is 890 s. Compound `O=c1ccc(-c2ccc(F)cc2)nn1CCc1nc(-c2ccc(F)cc2)no1` displayed an RP-LC retention time of 712 s. The compound `Cc1cc(F)ccc1S(=O)(=O)NCC(c1ccsc1)N1CCOCC1` (centres undefined) returned an RP-LC retention time of 572 s. Next, `CCC(=O)Nc1nc(-c2ccc3c(c2)N(CC)C(=O)CO3)c(C)s1`: 812 s; `COc1ccc(OC)c(NC(=O)Cn2nc3c4ccc(Cl)cc4ncn3c2=O)c1`: 740 s. As for `CCn1cc(C)c(C(=O)O)c1CC(=O)NC1CCCCCC1`, the figure is 814 s; as for `CCOC(=O)Cc1ccc(NC(=O)N2CCC3(CC2)Nc2cc(F)ccc2-n2cccc23)cc1`, 1000 s; as for `O=C(NCCc1csc(-c2ccccc2)n1)[C@H]1CCCN1S(=O)(=O)c1cccc(Cl)c1`, 994 s. In turn, `COc1ccc(-c2noc(C3CC(=O)N(c4ccc(F)cc4)C3)n2)cc1OC` (centres undefined) had an RP-LC retention time of 808 s. As for `CCc1nc(-c2csc(S(=O)(=O)N3CCC(C(=O)Nc4ccccc4F)CC3)c2)no1`, the figure is 981 s; as for `CCCn1cc(C(=O)Nc2cc(OC)ccc2OC)c(=O)c2ccc(C)nc21`, 1090 s.

`CCn1ccc2cc(S(=O)(=O)N3CCCC(C(=O)NCCN4CCCCC4)C3)ccc21` (centres undefined) came in with an RP-LC retention time of 668 s. Next, `CCn1c(=O)c(N2CCCC(C(=O)NCc3cccc(Br)c3)C2)nc2ccccc21` (centres undefined): 1080 s; `CSc1nc(C)c(Br)c(N2CC2)n1`: 596 s; `CSc1cccc(NC(=O)N2CCC(C)(C(=O)NCc3ccc(F)cc3)CC2)c1`: 884 s.

`Cc1ccc(Cn2c(N3CCCC(C(=O)NC4CCCCC4)C3)nc3ccsc3c2=O)cc1` (centres undefined) showed an RP-LC retention time of 1020 s. Compound `CCCN1C(=O)c2cc(S(=O)(=O)NCc3cccs3)ccc2Oc2cccnc21` showed an RP-LC retention time of 988 s. Next, `CC(C)NC(=O)C1CCN(c2cncnc2N2CCOCC2)CC1`: 570 s.

In turn, `O=C(CC1CCN(S(=O)(=O)c2ccccc2)CC1)N1CCN(c2ccccn2)CC1` showed an RP-LC retention time of 625 s. As for `O=C(Cn1nc(Cc2ccncc2)c2ccccc2c1=O)N1CCOCC1`, the figure is 787 s; as for `O=C(CC1CCNCC1)N1CCC(CCOc2cccnc2)CC1`, 544 s; as for `CCc1noc(-c2ccc(-n3cnc(C(=O)N4CCc5ccccc5C4)c3)nc2)n1`, 924 s.

The compound `Cc1ccc(C(=O)Nc2ccc(N3CCN(C4CCCC4)C3=O)nc2)cc1N1CCCC1=O` returned an RP-LC retention time of 686 s. On to `CCCC[C@H]1C(=O)O[C@H](C)[C@H](NC(=O)c2cccc(NC=O)c2OC)C(=O)O[C@@H](C)[C@@H]1OC(=O)CC(C)C`, for which the RP-LC retention time came out at 1190 s. `CCc1noc([C@@H]2CC(F)(F)CN2C(=O)c2cn(C)cn2)n1` registered an RP-LC retention time of 644 s. Next, `CCN1C(=O)COc2ccc(-c3noc(-c4ccc(OC)cc4OC)n3)cc21`: 1040 s; `COc1ccc(N2CCN(C(=O)CN3CCN(Cc4cccc(Cl)c4)C3=O)CC2)cc1`: 784 s.

Compound `COc1ccc(NS(=O)(=O)c2c(C)nn(-c3ccc(-c4ccc(C)cc4)nn3)c2C)cc1` had an RP-LC retention time of 1060 s. Take `CS(=O)(=O)Nc1ccc(-c2noc(CNC(=O)Cc3ccccc3)n2)cc1`: the RP-LC retention time stood at 722 s.

Consider `O=C(CN1C(=O)CCS(=O)(=O)c2ccccc21)NCCc1ccccc1`, for which the RP-LC retention time is 745 s.

For `CCc1ccc(CNC(=O)C2CCCN(c3nc4c(s3)c(C)nn4-c3ccc(F)cc3)C2)cc1` (centres undefined), the RP-LC retention time came out at 1240 s.

Compound `O=c1c(=O)n(-c2ccccc2)ccn1Cc1nc(-c2ccc(Cl)cc2)no1` had an RP-LC retention time of 877 s.

The values are drawn from the METLIN SMRT retention time set (Domingo-Almenara et al. 2019).
